Measurements: US9173935B2, “Phospholipid drug analogs” (Telormedix SA, priority 2010, dated 2015)

Columns and labels:
[1] = Storage stability by HPLC (solid or chloroform solution; temperature, light); assay type: physicochemical
Method: At this point, a stability study was conducted on batch CH730/16/8g.
The samples were analyzed at t=0 and after 20 days.

[2] = system: human PBMCs; test: IL-6 secretion in human PBMCs, two batches of Compound A and SC12; assay type: cell-based; conditions: 24 h, 4 doses
Method: PBMCs were purified from two donors and plated into 96 well plates at 2×10^5 cells/well in RPMI media including human 2% heat inactivated AB serum, glutamine, Pen-strep and R-mercapto-ethanol. The cells were treated with TLR7 agonists for 24 h in 4 doses. The conditioned media was removed for ELISA analyses for IL-6, and the EC50 value determined for each compound and each batch.
All compounds were tested in four concentrations (10-1-0.1-0.01 micromolar).
Concentrations of IL-6 were determined by ELISA from R&D Systems using the Microsoft Excel software. The results were analyzed in Graph Pad Prism in order to prepare dose-response curves, and for determination of EC50 values.

[3] = Plasma stability, second experiment, human plasma; conditions: human plasma, second experiment
Method: Second experiment: Test compounds (5 mM in DMSO) were diluted at the final concentration of 250 μM with ACN-MeOH 1:1.
Human plasma (1.180 ml) was spiked with 20 μl of 250 μM solution of the compound (4.16 μM final concentration) and aliquots of 50 μl volume were taken at 0, 15, 30, 60, 120 min and 5 hrs, and immediately quenched with 200 μl of a solution of Verapamil 250 ng/ml (internal standard, I.S.) in ACN:MeOH 95:5. Samples were then centrifuged for 20 min at 3000 rpm at 10° C. and analyzed as reported below. […] The supernatant fractions were analyzed by LC/MS/MS. Zero-time incubations were used as 100% values.
Stability was calculated as percentage remaining of the area ratio compound/I.S. at each time point vs. area ratio compound/I.S. at time 0 min.

[4] = system: HLA-DR+/CD20+ B cells; test: FACS analysis of B cell activation (CD40) in whole blood; assay type: cell-based, human; conditions: 24 hours, 2 and 10 uM, three donors
Method: (§1) A flow cytometric analysis was performed on whole blood from three donors after treatment with two compound concentrations for 24 h. The FACS analysis for donor 1 and donor 2 was made on another day than donor 3. The compound concentrations were as follows:
B cell activation: 2 and 10 uM
(§2) The FACS analysis was used to identify whether the test compounds could induce activation of B cells, and two different subsets of dendritic cells, namely the myeloid CD11c+/CD123− DCs and the plasmacytoid CD11c−/CD123+ DCs. The following markers were studied to identify the activation status of the different subsets:
(§3) The FACS staining was performed according to the manufacturer's instructions. Lysis of red blood cells was performed before FACS staining in order to minimize auto-florescence. To include as many B cells and DCs in the study as possible the FACS analyses were performed on 500,000 cells in total for each staining. A P1 gate was set only to include relevant cells on FSC vs. SSC (see FIGS. 12-15). The results of the individual analysis were present as Mean Fluorescence Intensity
The analysis of expression of the activation marker CD40 on B cells was made on double positive HLA-DR (MHC class II) (P4 gate) and CD20 cells (B cell marker) (P8 gate).

[5] = system: HLA-DR+/CD11c+/CD123- mDCs; test: FACS analysis of myeloid DC activation in whole blood; assay type: cell-based, human; conditions: 24 hours, 0.1 and 0.5 uM, three donors
Method: as §1, §2, §3
The analysis of myeloid DCs was based on HLA-DR+/CD11c+/CD123-cells, thus all analyzed cells was included in the HLA-DR+ (P3) gate and CD11c+/CD123− (Q4) gate (see gates in FIGS. 13-15).

[6] = system: Escherichia coli WP2 uvrA; test: Bacterial mutation assay, Escherichia coli; conditions: absence or presence of S9 metabolism
Method: The five tester strains TA1535, TA1537, TA98, TA100 and WP2 uvrA were used. Experiments were performed both in the absence and presence of metabolic activation, using liver S9 fraction from rats pre-treated with phenobarbitone and betanaphthoflavone. SC12 was used as a solution in dimethylsulfoxide (DMSO).

[7] = Single dose intravenous acute toxicity study in rats; assay type: in vivo, Sprague Dawley rat; conditions: for Mortality: preliminary phase, one male and one female; for Mortality and signs of toxicity: main phase
Method: An additional group, similarly composed, received the vehicle alone and acted as a control. […] Clinical signs were limited to piloerection and reduced activity, observed on the day of dosing.
In the main phase, 5 male and 5 female animals were dosed at 90 mg/kg and observed for a period of 14 days. A second group, similarly constituted, received the vehicle alone and acted as control. […] In addition, one male and one female dosed at 90 mg/kg were found dead on Day 2 of the study. Twitches, ataxia, piloerection, reduced activity and hunched posture were the major signs observed in animals before death. […] Piloerection was observed up to Day 3 of the study. A second group, similarly composed, was dosed at 80 mg/kg.

[8] = system: receptors associated with pain-related syndromes (e.g. adenosine and sodium channel); test: Radioligand binding assay among 73 primary molecular targets; conditions: SC12 at fixed concentration of 30 microM
[9] = biological target: CYP2C19 (Homo sapiens (Human), UniProt P33261); test: Fluorescent High Throughput P450 assay, CYP2C19; assay type: biochemical; conditions: substrate CEC; read-out: CYP2C19 IC50 (Mean ± S.D.)
Method: (§4) Inhibition of the P450 isoforms was measured in specific assays using specific substrates that become fluorescent upon CYP metabolism. Compounds, dissolved in ACN (acetonitrile) (CYP2E1, CYP2C8, CYP2B6, CYP3A5) or DMSO (all remaining isoforms), were tested in duplicate (n=2) in concentration-response curves (eight concentrations) in a 96-well plate containing incubation/NADPH regenerating buffer. Specific isoenzymes and substrates were added and incubated at 37° C. Reactions were terminated at different times, depending on the assays, and plates read on a Fluoroskan Ascent at the appropriate emission/excitation wavelengths. Concentration-response curves performed in duplicate for known inhibitors for each isoenzyme were tested in every assay as positive control.

[10] = biological target: CYP2D6 (Homo sapiens (Human), UniProt P10635); test: Fluorescent High Throughput P450 assay, CYP2D6; assay type: biochemical; conditions: substrate AMMC; read-out: CYP2D6 IC50 (Mean ± S.D.)
Method: as §4

[11] = biological target: CYP2B6 (Homo sapiens (Human), UniProt P20813); test: Fluorescent High Throughput P450 assay, CYP2B6; assay type: biochemical; conditions: substrate EFC; read-out: CYP2B6 IC50 (Mean ± S.D.)
Method: as §4

[12] = system: AY-27 rat bladder cancer cell-line
[13] = day 12, group 1 Imiquimod 0.1%, group 2 SC12 0.38%

Chain of CYP2B6 (P20813 whole entry, looked up): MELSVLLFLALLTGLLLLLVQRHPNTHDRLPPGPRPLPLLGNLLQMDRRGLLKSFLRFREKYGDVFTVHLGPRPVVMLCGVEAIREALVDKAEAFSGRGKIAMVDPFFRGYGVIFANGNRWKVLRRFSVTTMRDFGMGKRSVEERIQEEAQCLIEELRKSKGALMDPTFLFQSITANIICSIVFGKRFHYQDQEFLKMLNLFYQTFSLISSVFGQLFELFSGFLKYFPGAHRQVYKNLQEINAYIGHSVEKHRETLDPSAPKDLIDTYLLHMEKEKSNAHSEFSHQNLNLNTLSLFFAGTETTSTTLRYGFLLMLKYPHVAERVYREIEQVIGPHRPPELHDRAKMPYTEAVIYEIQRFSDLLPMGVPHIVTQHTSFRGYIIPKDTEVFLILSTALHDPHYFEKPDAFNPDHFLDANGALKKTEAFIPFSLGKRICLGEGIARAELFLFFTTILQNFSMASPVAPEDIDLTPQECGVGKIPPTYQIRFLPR
Chain of CYP2D6 (P10635 whole entry, looked up): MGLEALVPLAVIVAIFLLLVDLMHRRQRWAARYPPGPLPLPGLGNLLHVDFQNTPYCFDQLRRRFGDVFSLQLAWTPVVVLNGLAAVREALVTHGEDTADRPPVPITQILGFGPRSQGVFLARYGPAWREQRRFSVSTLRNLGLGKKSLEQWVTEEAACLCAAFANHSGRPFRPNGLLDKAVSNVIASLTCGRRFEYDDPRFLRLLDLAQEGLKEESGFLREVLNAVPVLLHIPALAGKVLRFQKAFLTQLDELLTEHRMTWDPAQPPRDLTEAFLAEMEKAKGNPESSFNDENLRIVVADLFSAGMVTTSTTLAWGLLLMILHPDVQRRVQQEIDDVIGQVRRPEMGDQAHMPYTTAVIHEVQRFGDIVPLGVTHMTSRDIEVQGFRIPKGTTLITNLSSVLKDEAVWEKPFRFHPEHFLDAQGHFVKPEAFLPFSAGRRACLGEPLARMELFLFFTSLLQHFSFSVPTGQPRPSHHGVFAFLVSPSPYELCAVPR
Chain of CYP2C19 (P33261 whole entry, looked up): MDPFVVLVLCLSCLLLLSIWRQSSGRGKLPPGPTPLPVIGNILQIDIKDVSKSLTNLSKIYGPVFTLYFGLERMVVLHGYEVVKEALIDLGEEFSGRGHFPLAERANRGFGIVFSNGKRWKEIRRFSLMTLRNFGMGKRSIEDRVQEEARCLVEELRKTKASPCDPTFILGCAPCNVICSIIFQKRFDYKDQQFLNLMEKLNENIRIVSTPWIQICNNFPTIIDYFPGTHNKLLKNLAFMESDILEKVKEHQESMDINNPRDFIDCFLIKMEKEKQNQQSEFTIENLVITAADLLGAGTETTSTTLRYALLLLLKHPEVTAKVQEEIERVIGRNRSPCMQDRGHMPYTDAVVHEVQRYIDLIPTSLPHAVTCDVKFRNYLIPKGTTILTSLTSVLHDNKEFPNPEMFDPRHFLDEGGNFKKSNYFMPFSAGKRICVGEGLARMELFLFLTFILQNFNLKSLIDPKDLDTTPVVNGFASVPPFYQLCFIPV

## CCCCCCCCCCCC(=O)OCC(COP(=O)(O)OCCNC(=O)c1ccc(Cn2c(=O)[nH]c3c(N)nc(OCCOC)nc32)cc1)OC(=O)CCCCCCCCCCC (stereo not drawn) [SC12]
[1]; Solid, RT and light, t = 20 days
  HPLC RRT = 1: RRT = 1: 87.8%
[1]; Solid, external T and light, t = 20 days
  HPLC RRT = 1: RRT = 1: 84.0%
[1]; Solution in CHCl3, RT and light, t = 20 days
  HPLC RRT = 1: RRT = 1: 88.0%
[1]; t = 0
  HPLC RRT = 1: RRT = 1: 90.3%
[2]; Donor 1, listed as SC12 new 20288
  EC50: 1870 nM
[2]; Donor 1, listed as SC12 old CH730/2/13D
  EC50: 2010 nM
[2]; Donor 2, listed as SC12 new 20288
  EC50: 947 nM
[2]; Donor 2, listed as SC12 old CH730/2/13D
  EC50: 1030 nM
[3]; 0 min
  % Remaining: 100%
[3]; 15 min
  % Remaining: 112.6 ± 1.0%
[3]; 30 min
  % Remaining: 110.0 ± 1.0%
[3]; 60 min
  % Remaining: 96.7 ± 6.3%
[3]; 120 min
  % Remaining: 102.1 ± 8.7%
[3]; up to 120 min
  Plasma stability classification: stable
[4]
  CD40 expression (MFI) on B cells: induced CD40 expression in donor 1 and donor 2 in all tested concentrations
[5]
  CCR7 expression on mDCs: less potent stimulator of CCR7 expression
  CD80 expression on mDCs: induced a noteworthy CD80 expression in all three donors
  CD86 expression on mDCs: induces a weak CD86 expression in donor 2 and 3, but not in donor 1
[6]; 50.0-5000 micrograms/plate
  Toxicity to tester strains: No toxicity was observed
[6]; up to 5000 micrograms/plate
  Reverse mutation: does not induce reverse mutation
[7]; 76 mg/kg i.v.
  Mortality: No mortality occurred
[7]; 80 mg/kg i.v.
  Mortality and signs of toxicity: no mortality and no signs of toxicity
[7]; 90 mg/kg i.v., 5 male and 5 female
  Mortality and signs of toxicity: induced mortality or significant signs of toxicity
[7]; 100 mg/kg i.v.
  Mortality: Both animals died at dosing
[7]; single intravenous dose
  Maximum tolerated dose: 80 mg/kg
[8]
  Binding to receptors associated with pain-related syndromes: did not bind
[9]
  IC50: > 100000 nM
[10]
  IC50: 67000 ± 3800 nM
[11]
  IC50: > 100000 nM
[12]; day 12
  Number of rats with a tumor positive bladder: 8 of 14
[12]; [13]
  Rats with pT2 Tumor, number (% of 14): 7 (50.0%)
  Tumor free rats, number (% of 14): 6 (42.9%)
[12]; day 12, group 2 SC12 0.38%
  Rats with pTa Tumor, number (% of 14): 1 (7.1%)
[12]; day 12, intravesical 0.5 ml on day 2 and 5, group 1 Imiquimod 0.1%, group 2 SC12 0.38%
  Mean weight of the rat bladders: 0.1014 grams
[12]; group 1 Imiquimod 0.1%, group 2 SC12 0.38%
  Mean number of tumors per rat bladder: 1.36
[12]; tumor positive bladders, group 1 Imiquimod 0.1%, group 2 SC12 0.38%
  Mean invasion depth: 1.4250 mm
